Consider four compounds from ChEMBL document CHEMBL5131517 (ACS Med Chem Lett, 2022).

SMILES strings stand for the structures. Bounds are passed on as bounds.

Assay [1] addresses Mu-type opioid receptor (Homo sapiens) (UniProt P35372). The assay can be described thus: Inhibition of MOR receptor (unknown origin). The note with it: concentration not given here.
The target of assay [2] is T1, Alpha-1D adrenergic receptor (Homo sapiens) (UniProt P25100).
T1 sequence (whole entry): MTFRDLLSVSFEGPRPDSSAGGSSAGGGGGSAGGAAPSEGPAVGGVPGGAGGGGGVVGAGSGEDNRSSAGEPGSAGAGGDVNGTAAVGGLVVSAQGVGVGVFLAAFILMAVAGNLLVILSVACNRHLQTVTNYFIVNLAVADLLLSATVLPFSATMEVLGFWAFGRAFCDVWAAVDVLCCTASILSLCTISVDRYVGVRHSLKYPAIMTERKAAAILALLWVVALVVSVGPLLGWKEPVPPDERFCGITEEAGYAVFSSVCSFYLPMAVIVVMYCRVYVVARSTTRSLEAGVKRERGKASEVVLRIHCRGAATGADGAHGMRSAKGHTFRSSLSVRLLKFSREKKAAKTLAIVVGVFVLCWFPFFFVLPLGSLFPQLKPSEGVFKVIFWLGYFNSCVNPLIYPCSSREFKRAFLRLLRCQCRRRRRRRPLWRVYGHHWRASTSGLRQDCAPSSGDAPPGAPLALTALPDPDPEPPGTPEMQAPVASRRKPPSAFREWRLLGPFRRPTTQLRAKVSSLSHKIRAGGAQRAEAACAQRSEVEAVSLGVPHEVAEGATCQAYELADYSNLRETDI
The assay can be described thus: Inhibition of alpha1D receptor (unknown origin). The following applies: concentration not given here.

The target in assay [3] is Sodium-dependent serotonin transporter (Homo sapiens, UniProt P31645). The assay can be described thus: Inhibition of SERT receptor (unknown origin). The following applies: concentration not given here.
Assay [4] deals with Kappa-type opioid receptor (Homo sapiens) (UniProt P41145). As to the kind of experiment: Inhibition of KOR receptor (unknown origin). The following applies: concentration not given here.
In assay [5] the target is T2, 5-hydroxytryptamine receptor 1A (Homo sapiens, UniProt P08908).
T2 sequence (P08908 whole entry): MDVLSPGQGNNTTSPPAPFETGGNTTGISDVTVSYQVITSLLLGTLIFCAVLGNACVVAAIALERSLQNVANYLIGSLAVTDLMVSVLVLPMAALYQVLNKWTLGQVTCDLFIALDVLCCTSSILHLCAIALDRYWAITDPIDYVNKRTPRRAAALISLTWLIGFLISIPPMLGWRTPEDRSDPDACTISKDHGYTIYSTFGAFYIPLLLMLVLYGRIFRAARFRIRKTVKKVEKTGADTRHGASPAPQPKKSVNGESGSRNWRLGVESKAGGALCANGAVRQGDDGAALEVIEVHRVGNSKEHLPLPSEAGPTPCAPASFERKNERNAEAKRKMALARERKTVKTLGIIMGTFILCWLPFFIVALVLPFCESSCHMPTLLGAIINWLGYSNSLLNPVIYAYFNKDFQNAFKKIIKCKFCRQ
As to the kind of experiment: Binding affinity to 5HT1A receptor (unknown origin) assessed as inhibition constant.

For assay [6], the target named is Beta-3 adrenergic receptor (Homo sapiens) (UniProt P13945). As to the kind of experiment: Inhibition of beta 3 receptor (unknown origin). The note with it: concentration not given here.
In assay [7] the target is Beta-2 adrenergic receptor (Homo sapiens) (UniProt P07550). The assay can be described thus: Inhibition of beta 2 receptor (unknown origin). The following applies: concentration not given here.
Assay [8] concerns the target Sigma non-opioid intracellular receptor 1 (Homo sapiens, UniProt Q99720). The assay can be described thus: Binding affinity to sigma 1 receptor (unknown origin) assessed as inhibition constant.
Assay [9] concerns the target T3, 5-hydroxytryptamine receptor 2C (Homo sapiens, UniProt P28335).
T3 sequence (P28335 whole entry): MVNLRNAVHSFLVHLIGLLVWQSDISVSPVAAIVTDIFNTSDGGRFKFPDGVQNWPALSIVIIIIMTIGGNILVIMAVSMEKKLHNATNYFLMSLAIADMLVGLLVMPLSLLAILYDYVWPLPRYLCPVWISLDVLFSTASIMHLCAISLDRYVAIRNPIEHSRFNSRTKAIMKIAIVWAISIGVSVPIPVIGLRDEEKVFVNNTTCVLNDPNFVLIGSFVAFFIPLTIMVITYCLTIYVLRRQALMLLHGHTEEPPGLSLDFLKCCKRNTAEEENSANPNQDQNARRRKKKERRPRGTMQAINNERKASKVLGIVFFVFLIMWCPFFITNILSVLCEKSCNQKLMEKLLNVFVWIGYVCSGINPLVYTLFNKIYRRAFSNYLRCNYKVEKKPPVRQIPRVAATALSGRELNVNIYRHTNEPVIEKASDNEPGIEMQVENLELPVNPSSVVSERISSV
As to the kind of experiment: Agonist activity at human 5HT2C receptor stably expressed in Flp-In-T-REx-293 cells assessed as increase in Gq-mediated calcium flux by Fluo-4 direct dye based FLIPR Tetra assay. Type of assay: functional, cell-based. The following applies: read-out: EC50. (A change in cytosolic calcium serves as a functional read-out for many receptors and channels.)

The target in assay [10] is 5-hydroxytryptamine receptor 2B (Homo sapiens, UniProt P41595). As to the kind of experiment: Agonist activity at human 5HT2B receptor stably expressed in Flp-In-T-REx-293 cells assessed as maximal Gq-mediated calcium flux by Fluo-4 direct dye based FLIPR Tetra assay relative to control. Format: functional, cell-based. The following applies: filed as agonist.
In assay [11] the target is 5-hydroxytryptamine receptor 6 (Homo sapiens, UniProt P50406). As to the kind of experiment: Binding affinity to 5HT6 receptor (unknown origin) assessed as inhibition constant.
Assay [12] has as its target T3, 5-hydroxytryptamine receptor 2C. As to the kind of experiment: Binding affinity to 5HT2C receptor (unknown origin) assessed as inhibition constant.
The target in assay [13] is T4, Alpha-2B adrenergic receptor (Homo sapiens) (UniProt P18089).
T4 sequence (whole entry): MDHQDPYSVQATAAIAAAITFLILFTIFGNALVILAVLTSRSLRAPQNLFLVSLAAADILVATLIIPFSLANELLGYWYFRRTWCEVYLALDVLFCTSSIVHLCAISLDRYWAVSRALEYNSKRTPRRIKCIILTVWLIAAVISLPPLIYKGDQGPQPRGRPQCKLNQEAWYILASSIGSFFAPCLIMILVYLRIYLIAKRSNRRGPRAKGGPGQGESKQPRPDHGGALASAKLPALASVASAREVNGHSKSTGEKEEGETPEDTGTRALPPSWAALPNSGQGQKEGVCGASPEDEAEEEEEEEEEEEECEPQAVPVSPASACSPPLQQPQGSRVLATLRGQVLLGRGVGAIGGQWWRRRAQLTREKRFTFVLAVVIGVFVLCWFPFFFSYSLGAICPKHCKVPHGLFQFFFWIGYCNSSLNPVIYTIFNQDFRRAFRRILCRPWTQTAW
As to the kind of experiment: Inhibition of alpha2B receptor (unknown origin). The note with it: concentration not given here.

For assay [14], the target named is 5-hydroxytryptamine receptor 2A (Homo sapiens, UniProt P28223). As to the kind of experiment: Binding affinity to 5HT2A receptor (unknown origin) assessed as inhibition constant.
5-hydroxytryptamine receptor 2A, sequence (P28223 whole entry): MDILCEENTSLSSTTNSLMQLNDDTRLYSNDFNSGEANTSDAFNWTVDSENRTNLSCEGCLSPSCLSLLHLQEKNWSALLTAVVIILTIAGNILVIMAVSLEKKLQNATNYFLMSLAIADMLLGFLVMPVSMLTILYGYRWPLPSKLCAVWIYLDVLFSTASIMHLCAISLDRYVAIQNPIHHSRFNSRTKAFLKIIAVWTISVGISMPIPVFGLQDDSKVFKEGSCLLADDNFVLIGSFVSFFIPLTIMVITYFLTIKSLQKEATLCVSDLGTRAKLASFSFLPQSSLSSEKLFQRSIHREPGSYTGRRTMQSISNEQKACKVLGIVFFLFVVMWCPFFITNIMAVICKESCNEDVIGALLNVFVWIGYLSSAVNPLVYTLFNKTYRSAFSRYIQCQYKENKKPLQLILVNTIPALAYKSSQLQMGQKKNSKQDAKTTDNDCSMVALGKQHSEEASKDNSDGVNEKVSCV

5-hydroxytryptamine receptor 2B, sequence (P41595 whole entry): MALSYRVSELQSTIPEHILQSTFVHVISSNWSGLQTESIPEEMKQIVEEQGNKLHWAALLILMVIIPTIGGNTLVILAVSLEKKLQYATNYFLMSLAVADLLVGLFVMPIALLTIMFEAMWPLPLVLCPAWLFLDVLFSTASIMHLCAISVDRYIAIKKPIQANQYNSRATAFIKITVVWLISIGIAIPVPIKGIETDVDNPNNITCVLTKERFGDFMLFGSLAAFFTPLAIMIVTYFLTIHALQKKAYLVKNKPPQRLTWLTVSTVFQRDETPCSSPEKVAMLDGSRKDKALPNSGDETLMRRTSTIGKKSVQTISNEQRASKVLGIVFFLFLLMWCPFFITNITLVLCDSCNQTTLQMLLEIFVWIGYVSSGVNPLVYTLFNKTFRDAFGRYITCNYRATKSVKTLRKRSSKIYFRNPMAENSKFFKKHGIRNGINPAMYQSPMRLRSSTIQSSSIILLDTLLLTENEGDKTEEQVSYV
5-hydroxytryptamine receptor 6, sequence (P50406 whole entry): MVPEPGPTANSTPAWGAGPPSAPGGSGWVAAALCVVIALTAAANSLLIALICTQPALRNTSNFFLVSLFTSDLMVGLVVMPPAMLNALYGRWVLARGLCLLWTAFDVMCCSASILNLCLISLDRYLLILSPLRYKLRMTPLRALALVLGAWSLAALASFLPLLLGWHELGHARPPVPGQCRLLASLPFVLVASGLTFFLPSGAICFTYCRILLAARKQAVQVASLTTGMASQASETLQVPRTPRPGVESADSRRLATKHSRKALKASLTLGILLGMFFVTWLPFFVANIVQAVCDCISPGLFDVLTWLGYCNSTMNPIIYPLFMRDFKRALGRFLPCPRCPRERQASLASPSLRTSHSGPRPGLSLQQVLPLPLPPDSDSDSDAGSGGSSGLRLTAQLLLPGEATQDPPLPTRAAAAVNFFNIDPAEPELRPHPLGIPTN
Beta-3 adrenergic receptor (Homo sapiens), sequence (P13945 whole entry, looked up): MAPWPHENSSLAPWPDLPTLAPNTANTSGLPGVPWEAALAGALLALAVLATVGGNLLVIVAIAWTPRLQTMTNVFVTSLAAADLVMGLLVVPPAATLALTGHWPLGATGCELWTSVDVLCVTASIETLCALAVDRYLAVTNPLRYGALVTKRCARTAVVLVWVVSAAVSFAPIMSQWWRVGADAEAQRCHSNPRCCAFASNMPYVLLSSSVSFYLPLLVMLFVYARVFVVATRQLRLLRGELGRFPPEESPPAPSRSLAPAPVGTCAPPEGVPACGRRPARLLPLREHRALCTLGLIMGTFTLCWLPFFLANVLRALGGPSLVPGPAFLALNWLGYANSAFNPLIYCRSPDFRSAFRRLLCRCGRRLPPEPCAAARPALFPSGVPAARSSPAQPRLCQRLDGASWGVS
Sodium-dependent serotonin transporter, sequence (P31645 whole entry, looked up): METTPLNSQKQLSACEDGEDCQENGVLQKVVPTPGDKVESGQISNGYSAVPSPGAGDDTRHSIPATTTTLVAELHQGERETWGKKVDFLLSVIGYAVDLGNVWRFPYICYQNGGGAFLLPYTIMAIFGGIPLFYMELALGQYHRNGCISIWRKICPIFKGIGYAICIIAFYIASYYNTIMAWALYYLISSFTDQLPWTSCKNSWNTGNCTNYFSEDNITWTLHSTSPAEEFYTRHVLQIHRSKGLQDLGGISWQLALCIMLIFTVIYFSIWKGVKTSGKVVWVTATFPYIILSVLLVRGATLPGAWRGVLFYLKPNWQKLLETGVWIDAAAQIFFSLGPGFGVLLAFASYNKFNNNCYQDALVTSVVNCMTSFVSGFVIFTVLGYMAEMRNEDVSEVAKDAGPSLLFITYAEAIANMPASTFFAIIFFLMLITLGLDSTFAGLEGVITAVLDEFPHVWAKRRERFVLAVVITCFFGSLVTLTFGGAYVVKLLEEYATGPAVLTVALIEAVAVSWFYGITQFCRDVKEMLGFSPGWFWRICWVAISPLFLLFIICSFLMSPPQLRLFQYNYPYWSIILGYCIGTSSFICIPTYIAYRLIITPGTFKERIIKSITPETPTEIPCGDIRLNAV
Kappa-type opioid receptor (Homo sapiens), sequence (P41145 whole entry): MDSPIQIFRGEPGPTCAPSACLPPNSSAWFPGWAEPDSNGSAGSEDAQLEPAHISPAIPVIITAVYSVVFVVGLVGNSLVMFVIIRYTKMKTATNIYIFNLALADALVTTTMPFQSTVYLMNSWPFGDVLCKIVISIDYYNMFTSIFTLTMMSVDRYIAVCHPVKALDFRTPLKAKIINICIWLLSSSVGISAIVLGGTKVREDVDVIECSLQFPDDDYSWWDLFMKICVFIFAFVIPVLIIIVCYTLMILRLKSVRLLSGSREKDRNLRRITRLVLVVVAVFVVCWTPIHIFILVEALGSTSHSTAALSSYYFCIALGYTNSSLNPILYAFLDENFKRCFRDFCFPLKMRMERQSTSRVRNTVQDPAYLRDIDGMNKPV
Mu-type opioid receptor (Homo sapiens), sequence (P35372 whole entry): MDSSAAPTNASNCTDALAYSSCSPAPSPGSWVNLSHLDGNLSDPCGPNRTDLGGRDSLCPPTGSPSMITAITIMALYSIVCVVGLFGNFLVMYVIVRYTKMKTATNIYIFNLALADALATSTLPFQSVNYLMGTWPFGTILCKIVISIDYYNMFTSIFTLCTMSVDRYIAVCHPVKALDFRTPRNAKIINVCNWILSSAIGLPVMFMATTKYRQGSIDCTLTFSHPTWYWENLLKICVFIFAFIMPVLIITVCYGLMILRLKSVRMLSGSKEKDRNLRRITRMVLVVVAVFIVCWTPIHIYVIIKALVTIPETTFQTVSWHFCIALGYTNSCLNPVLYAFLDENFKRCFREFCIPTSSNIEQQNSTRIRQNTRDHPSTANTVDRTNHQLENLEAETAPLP
Sigma non-opioid intracellular receptor 1, sequence (Q99720 whole entry): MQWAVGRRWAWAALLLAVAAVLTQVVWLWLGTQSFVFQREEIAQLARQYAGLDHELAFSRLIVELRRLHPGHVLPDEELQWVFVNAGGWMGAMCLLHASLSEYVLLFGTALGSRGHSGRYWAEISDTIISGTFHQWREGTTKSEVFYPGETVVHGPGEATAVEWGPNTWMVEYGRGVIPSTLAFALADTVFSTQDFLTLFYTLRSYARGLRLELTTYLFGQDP
Beta-2 adrenergic receptor (Homo sapiens), sequence (P07550 whole entry, looked up): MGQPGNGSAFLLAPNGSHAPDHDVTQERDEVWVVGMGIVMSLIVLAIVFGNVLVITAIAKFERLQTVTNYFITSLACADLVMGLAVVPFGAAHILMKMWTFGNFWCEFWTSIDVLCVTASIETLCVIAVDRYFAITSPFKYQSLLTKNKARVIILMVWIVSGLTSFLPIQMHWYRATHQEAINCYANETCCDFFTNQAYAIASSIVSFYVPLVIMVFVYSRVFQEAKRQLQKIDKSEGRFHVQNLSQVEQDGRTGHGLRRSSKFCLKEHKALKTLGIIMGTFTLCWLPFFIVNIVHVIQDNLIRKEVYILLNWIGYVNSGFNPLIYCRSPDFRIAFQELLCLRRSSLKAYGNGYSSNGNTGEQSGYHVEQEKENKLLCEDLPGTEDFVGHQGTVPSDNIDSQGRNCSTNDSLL

For `COc1cc(OC)c(C2NCCc3c2[nH]c2ccc(F)cc32)cc1OC` (centres undefined), the inhibition in assay [1], in [2], in assay [3], in assay [4], in [6] and in [7] was < 50% each time. Further, in [13], the inhibition (usually the share of the control response that was lost under treatment) is < 50%. The inhibition constant Ki (usually a dissociation constant, usually derived from enzyme kinetics or from competition with a known ligand) in [5] was 1370 nM; in assay [8], 760 nM; in [11], 530 nM; in assay [12] it was 671 nM; in assay [14], 2440 nM. For the same compound, the EC50 – broadly, the concentration that produces a half-maximal response – in assay [9] came to 20 nM. The maximal effect (Emax) (in general, the maximal effect, on the per cent scale that the assay sets) in [10] was 106%.

In the case of `COc1cc(OC)c(C2NCCc3c2[nH]c2ccc(Cl)cc32)cc1OC` (centres undefined), the inhibition in [1], in assay [2], in [3], in [4], in [6] and in [7] was < 50% in each case. In addition, the inhibition in [13] is < 50%. Further, the Ki in assay [5] was found to be 22.4 nM; in assay [8], 1490 nM; in assay [11], 29 nM; in assay [12] it was 25.2 nM; in [14], 113 nM. In addition, the EC50 in assay [9] was 0.5 nM. Further, the Emax in assay [10] worked out at 96.7%.

For the compound `COc1ccc(C2NCCc3c2[nH]c2ccc(F)cc32)c(O)c1` (centres undefined), the inhibition in assay [1], in assay [2], in assay [4], in assay [6], in assay [7] and in assay [13] was < 50% throughout. For the same compound, the Ki in assay [5] was 94.4 nM; in assay [11], 68.8 nM; in assay [12], 49.8 nM; in assay [14], 250 nM. Further, the EC50 in assay [9] stood at 1.02 nM. Further, the maximum response (Emax) in assay [10] amounted to 102%.

As to `COc1ccc(C2NCCc3c2[nH]c2ccc(Cl)cc32)c(O)c1` (centres undefined), the inhibition in [1], in assay [2], in [3], in [4], in [6] and in assay [7] was < 50% each time. Also, the inhibition in assay [13] was < 50%. Further, the Ki in [5] was found to be 79.9 nM; in [8], 1030 nM; in assay [11], 47.7 nM; in assay [12] it was 35.9 nM; in [14], 225 nM. In addition, the EC50 in [9] was determined as 8.9 nM. Moreover, the Emax in assay [10] came to 99.4%.
